The values that follow come from patent US20260266804A1, “MODEL FOR ANALYZING INFLAMMATION AND USES THEREOF” (Technion Research & Development Foundation Limited, priority 2022, published 2026).

Data set [1] has as its system Caco-2 cells. Put plainly: SNAP treatment of Caco2 cells, IL-8 mRNA by qRT-PCR. The class given is cell-based, human. The conditions noted are these: SNAP two sequential doses, 22 hours. The procedure: (§1) Day before SNAP (Sigma) treatment, Caco2 cells were cultured in working medium with MEM (Sigma) supplemented with 20% heat inactivated FCS (Biological Industries), ferric ammonium citrate (Sigma), non-essential amino acids (Gibco), sodium pyruvate (Gibco), L-glutamine (Biological Industries) and Pen.-strep. (Biological Industries) in an oxygen modified incubator (6% O2) at 37° C. and 5% CO2.
(§2) SNAP was added to the cells for 22 hours in two sequential doses 1 mM each. First dose was added for 6 hours, 20% of the medium was then collected and replaced with working medium containing 5 mM SNAP for additional incubation of […].
(§3) RNA was extracted using the Trizol reagent (Invitrogen). Cells were harvested directly with Trizol, whereas tissues were first ground in liquid-N2 cooled mortars then incubated with Trizol following manufacturer's instructions. Isolated RNA samples were submitted to DNase treatment using DNase I recombinant, RNase-free kit (Roche). cDNA was prepared using cDNA Reverse Transcription Kit (Quanta biosciences), and the RT-PCRs were performed using SYBR master mix (Applied Biosystems). The delta Ct method was used to calculate a relative expression of the target gene in comparison to topoisomerase 1 for epithelial cells and ubiquitin for macrophage genes.
In general terms: Quantitative PCR measures a nucleic acid by following its amplification.

Data set [2] relates to Caco2 cells. Description: SNAP treatment of 55Fe labeled Caco2 cells, CPM in cells and medium. The conditions noted are these: SNAP induced Caco2 cells. It is filed as cell-based, human. The procedure:
as §1, §2
Cells were given medium containing transferrin loaded with labeled iron. First labeled Ferric nitrilotriacetate (Fe-(NTA)2) was prepared, by mixing 5 parts of […] (pH=3) in 0.9% NaCl, with 4 parts of 100 mM of ferric chloride solution (FeCl3) in 0.1M HCl and one part of ^55Fe labeled ferric chloride solution (^55FeCl3). The mixture was incubated for 30 minutes at RT. Next, 125 parts of 1 mM human Apotransferrin (Kamada) solution in HBS was mixed with 12.5 parts of NaHCO3 and 10 parts of the labeled Ferric nitrilotriacetate (50 mM). The mixture was then added to the growth medium, 147.5 ul of labeled transferrin was added to 2 ml of growth medium. Cells were labeled with ^55Fe for ON. Then the medium was removed and cells were washed with PBS. […]

For data set [3], the system named is ECs-Raw 264.7 co-culture. Put plainly: Tempol in ECs-Raw 264.7 co-culture, pro-inflammatory markers by RTqPCR. It is filed as cell-based, human and mouse. Conditions: Tempol 3 mM alone, different times, no LPS. On the procedure: (§4) Day before co-culture assembly Caco2 cells were cultivated in an oxygen modified incubator (6% O2). Confluent co-cultures of epithelial cells and macrophages were obtained by seeding 2×10^5 cells per cm^2 surface area. Cell culture dishes employed were 10 cm or 6 well. For Caco2-Raw 264.7 co-cultures, Caco2 cells were seeded, after adherence Raw264.7 cells were added accordingly. For Caco2-BMDM co-cultures, on the six day of bone marrow extraction the cells were plated as previously mentioned, and Caco2 cells were added to them accordingly. Co-cultures were cultivated in an oxygen modified incubator (6% O2) at 37° C. and 5% CO2. Co-culture ratios used were 1:1 or 2:1 or 1:2.
as §3

Data set [4] has as its system aconitase (IRP1 activation). Description: Tempol in ECs-Raw 264.7 co-culture, aconitase in-gel activity. The class given is cell-based. Conditions: Tempol 3 mM, direct correlation with incubation time. On the procedure:
as §4
Mitochondrial and cytosolic aconitase activities were assayed in parallel in cell lysates after electrophoretic separation as previously described [Tong et al. Cell metabolism 3, 199-210 (2006)]. Protein concentrations were determined using the Bradford assay (BIO-RAD, Hercules, California). Aconitase activity was detected chromogenically by incubating the gels in 100 mM Tris pH 8, 1 mM NADP, 2.5 mM cis-aconitic acid, 1.2 mM 3-(4,5-dimethylthiazol-2-yl)-2,5-diphenyl tetrazolium bromide, 0.3 mM phenazine methosulfate, 5 mM MgCl2 and 5 Units/ml isocitrate dehydrogenase. All chemicals were purchased from Sigma Missouri.

In data set [5] the test system is epithelial pro-inflammatory markers (Caco2 cells). Put plainly: Pre-conditioning of Caco2 cells with tempol, then Raw 264.7 cells and LPS, qRT-PCR. The class given is cell-based, human. Conditions: tempol 3 mM 16 hours pre-conditioning, then Raw 264.7 and LPS 6 hours. The procedure:
Representative SDS-PAGE gels of subcellular fractions, cytosolic nuclear soluble and nuclear chromatic bound fractions (upper). Protein levels were quantified with Image J (lower), values presented as mean±SD. n=4. * DFO 100 Um for 24 hours. C-E. Co-culture of epithelial cells and macrophages with targeted deletion of IRP1 (MΦ Irp1^−/−) didn't restore iron homeostasis in the co-culture upon LPS stimulation. Epithelial cells were co-cultured with BMDM isolated from C57BL/6 mice (MΦ wt) or from IRP^−/− on C57BL/6 background mice (MΦ Irp1^−/−) as described. LPS 200 ng/ml was added for 24 hours. […] Representative immunoblot of FtH. n=8. […] Representative blot of IRP2. n=8. E. Aconitase activities were decreased in epithelial cells and macrophages in EC-MΦ wt and EC-MΦ Irp1^−/− co-cultures. Representative aconitase in-gel assay. n=4. […] Caco2 cells were cultured with tempol (3 mM) for 16 hours, cells were then washed, and Raw 264.7 cells were added. When Raw 264.7 cells were adhered, the excess of cells was washed away and LPS was added for 6 hours. Expression levels were measured by qRT-PCR. n=6.
RNA was extracted using the Trizol reagent (Invitrogen). Cells were harvested directly with Trizol, whereas tissues were first ground in liquid-N2 cooled mortars then incubated with Trizol following manufacturer's instructions. […]

Entries after “also recorded” stand apart in the source; their conditions may differ.

For `CC(=O)N[C@H](C(=O)O)C(C)(C)SN=O` (racemic) [SNAP, S-Nitroso-N-Acetylpenicillamine], the “IL-8 mRNA expression levels / inflammatory response in Caco-2 cells alone” value in data set [1] is given as “showed an inflammatory response; also recorded: elevated”. The intracellular iron entry in data set [2] (55Fe CPM in the cells) is “reduced”. Further, the extracellular iron entry in data set [2] (55Fe CPM in the medium) is listed as “increased”.
Turning to `CC1(C)CC(O)CC(C)(C)N1[O]` [tempol], the “transcription levels of pro-inflammatory markers / inflammatory response” value in data set [3] was “did not elicit any inflammatory response; also recorded: increased trend that was not statistically significant”. In addition, in data set [4], the aconitase activities entry is “decreased”. Also, in data set [5], the “expression levels of selected epithelial pro-inflammatory markers” value is “significantly increased”.
